Values quoted from earlier work as cited in PubChem BioAssay AID1259409 (Chemical Carcinogenesis Research Information System (CCRIS), 2018).

System: rodent chemically induced tumor inhibition, incidence and multiplicity
Test: CCRIS tumor inhibitor studies

Structure (SMILES): CC1=C(/C=C/C(C)=C/C=C/C(C)=C/C(=O)Nc2ccc(O)cc2)C(C)(C)CCC1
- tumour outcome (control, treated, inhibition, significance) (Carcinogen: 7,12-DIMETHYLBENZ[A]ANTHRACENE, 57-97-6, Dose [Inhibitor]: 1.5 MMOL/KG CHOW DIET IN 25 ML OF THE VEHICLE (ETHANOL/TRICAPRYLIN 1:4 (VOL/VOL) PLUS 6% (WT/VOL) ALPHA-TOCOPHEROL) BEGI, Route [Inhibitor]: ORAL, Species: RAT, Strain/Sex: SPRAGUE-DAWLEY/FEMALE, Target Tissue: Type of Lesion: MAMMARY GLAND: TUMOR, Dose [Carcinogen]: 75 MG/KG BW IN 1.0 ML SESAME OIL ONCE, Promoter: NONE USED): 70%, 30%, 57%, not significant
- tumour outcome (control, treated, inhibition, significance) (Carcinogen: 7,12-DIMETHYLBENZ[A]ANTHRACENE, 57-97-6, Dose [Inhibitor]: 2 MMOL/KG DIET DAILY FROM 10 D THROUGH 12 WK AFTER CARCINOGEN DOSE FOLLOWED BY 16 WK OBSERVATION PERIOD (STUDY DURATION:, Route [Inhibitor]: ORAL, Species: RAT, Strain/Sex: SPRAGUE-DAWLEY/FEMALE, Target Tissue: Type of Lesion: MAMMARY GLAND: TUMOR, Dose [Carcinogen]: 10 MG/RAT ONCE, Promoter: NONE USED): 8/15 (53%), 7/15 (47%), 11%, not significant
- tumour outcome (control, treated, inhibition, significance) (Carcinogen: 7,12-DIMETHYLBENZ[A]ANTHRACENE, 57-97-6, Dose [Inhibitor]: 2 MMOL/KG DIET DAILY FROM 29 D PRIOR THROUGH 12 WK AFTER CARCINOGEN DOSE FOLLOWED BY 16 WK OBSERVATION PERIOD (STUDY DUR, Route [Inhibitor]: ORAL, Species: RAT, Strain/Sex: SPRAGUE-DAWLEY/FEMALE, Target Tissue: Type of Lesion: MAMMARY GLAND: TUMOR, Dose [Carcinogen]: 10 MG/RAT ONCE, Promoter: NONE USED): 8/15 (53%), 9/15 (60%), -13%, not significant
- tumour outcome (control, treated, inhibition, significance) (Carcinogen: DIETHYLNITROSAMINE [55-18-5], Dose [Inhibitor]: 280 NM/100 G BW WK FOR 3 WK BETWEEN 4TH AND 25TH WK AFTER CARCINOGEN (STUDY DURATION: 50 WK), Route [Inhibitor]: IP INJECTION, Species: RAT, Strain/Sex: F344/MALE, Target Tissue: Type of Lesion: LIVER: HEPATOCELLULAR CARCINOMA, Dose [Carcinogen]: 150 MG/KG ONCE, Promoter: 2-ACETYLAMINOFLUORENE [53-96-3]): 14/18 (78%), 6/20 (30%), 62%, p= 0.0044
- tumour outcome (control, treated, inhibition, significance) (Carcinogen: DIETHYLNITROSAMINE, 55-18-5, Dose [Inhibitor]: 0, 98 MG/KG DIET FOR DURATION OF STUDY BEGINNING 1 WK PRIOR TO CARCINOGEN TREATMENT (STUDY DURATION: 25 WK), Route [Inhibitor]: ORAL, Species: HAMSTER, Strain/Sex: SYRIAN/MALE, Target Tissue: Type of Lesion: LUNG: CARCINOMA, Dose [Carcinogen]: 17.8 MG/KG BW 2/WK FOR 20 WK, Promoter: NONE USED): 50%, 45%, 10%, not significant
- tumour outcome (control, treated, inhibition, significance) (Carcinogen: DIETHYLNITROSAMINE, 55-18-5, Dose [Inhibitor]: 0, 98 MG/KG DIET FOR DURATION OF STUDY BEGINNING 1 WK PRIOR TO CARCINOGEN TREATMENT (STUDY DURATION: 25 WK), Route [Inhibitor]: ORAL, Species: HAMSTER, Strain/Sex: SYRIAN/MALE, Target Tissue: Type of Lesion: TRACHEA: PAPILLOMA, Dose [Carcinogen]: 17.8 MG/KG BW 2/WK FOR 20 WK, Promoter: NONE USED): 95%, 95%, 0%, not significant
- tumour outcome (control, treated, inhibition, significance) (Carcinogen: DIETHYLNITROSAMINE, 55-18-5, Dose [Inhibitor]: 0, 196 MG/KG DIET FOR DURATION OF STUDY BEGINNING 1 WK PRIOR TO CARCINOGEN TREATMENT (STUDY DURATION: 25 WK), Route [Inhibitor]: ORAL, Species: HAMSTER, Strain/Sex: SYRIAN/MALE, Target Tissue: Type of Lesion: LUNG: CARCINOMA, Dose [Carcinogen]: 17.8 MG/KG BW 2/WK FOR 20 WK, Promoter: NONE USED): 60%, 50%, 17%, not significant
- tumour outcome (control, treated, inhibition, significance) (Carcinogen: DIETHYLNITROSAMINE, 55-18-5, Dose [Inhibitor]: 0, 196 MG/KG DIET FOR DURATION OF STUDY BEGINNING 1 WK PRIOR TO CARCINOGEN TREATMENT (STUDY DURATION: 25 WK), Route [Inhibitor]: ORAL, Species: HAMSTER, Strain/Sex: SYRIAN/MALE, Target Tissue: Type of Lesion: TRACHEA: PAPILLOMA, Dose [Carcinogen]: 17.8 MG/KG BW 2/WK FOR 20 WK, Promoter: NONE USED): 100%, 100%, 0%, not significant
- tumour outcome (control, treated, inhibition, significance) (Carcinogen: DIMETHYLBENZ[A]ANTHRACENE, 57-97-6, Dose [Inhibitor]: 0, 782 MG/KG DIET IN VEHICLE 2 MO PRIOR TO CARCINOGEN DOSE AND CONTINUED UNTIL CARCINOGEN ADMINISTRATION (STUDY DURATION, Route [Inhibitor]: ORAL, Species: RAT, Strain/Sex: CD-1/FEMALE, Target Tissue: Type of Lesion: MAMMARY GLAND: ADENOCARCINOMA, Dose [Carcinogen]: 20 MG IN 1 ML SESAME OIL ONCE, Promoter: NONE USED): 63%, 71%, -13%, not calculated
- tumour outcome (control, treated, inhibition, significance) (Carcinogen: DIMETHYLBENZ[A]ANTHRACENE, 57-97-6, Dose [Inhibitor]: 0, 782 MG/KG DIET IN VEHICLE 2 MO PRIOR TO CARCINOGEN DOSE AND CONTINUED UNTIL CARCINOGEN ADMINISTRATION (STUDY DURATION, Route [Inhibitor]: ORAL, Species: RAT, Strain/Sex: CD-1/FEMALE, Target Tissue: Type of Lesion: MAMMARY GLAND: ADENOMA, Dose [Carcinogen]: 20 MG IN 1 ML SESAME OIL ONCE, Promoter: NONE USED): 17%, 43%), -153%, not calculated
- tumour outcome (control, treated, inhibition, significance) (Carcinogen: METHYLNITROSOUREA, 684-93-5, Dose [Inhibitor]: 0, 782 MG/KG DIET IN VEHICLE 2 MO PRIOR TO CARCINOGEN DOSE AND CONTINUED FOR STUDY DURATION (STUDY DURATION: 8 MO), Route [Inhibitor]: ORAL, Species: RAT, Strain/Sex: CD-1/FEMALE, Target Tissue: Type of Lesion: MAMMARY GLAND: ADENOCARCINOMA, Dose [Carcinogen]: 50 MG/KG BW ONCE, Promoter: NONE USED): 57%, 23%, 60%, p<0.05
- tumour outcome (control, treated, inhibition, significance) (Carcinogen: METHYLNITROSOUREA, 684-93-5, Dose [Inhibitor]: 0, 782 MG/KG DIET IN VEHICLE 2 MO PRIOR TO CARCINOGEN DOSE AND CONTINUED FOR STUDY DURATION (STUDY DURATION: 8 MO), Route [Inhibitor]: ORAL, Species: RAT, Strain/Sex: CD-1/FEMALE, Target Tissue: Type of Lesion: MAMMARY GLAND: BENIGN TUMOR, Dose [Carcinogen]: 50 MG/KG BW ONCE, Promoter: NONE USED): 10%, 3%, 70%, not calculated
- tumour outcome (control, treated, inhibition, significance) (Carcinogen: METHYLNITROSOUREA, 684-93-5, Dose [Inhibitor]: 0, 782 MG/KG DIET IN VEHICLE 2 MO PRIOR TO CARCINOGEN DOSE AND CONTINUED UNTIL CARCINOGEN ADMINISTRATION (STUDY DURATION, Route [Inhibitor]: ORAL, Species: RAT, Strain/Sex: CD-1/FEMALE, Target Tissue: Type of Lesion: MAMMARY GLAND: ADENOCARCINOMA, Dose [Carcinogen]: 50 MG/KG BW ONCE, Promoter: NONE USED): 57%, 66%, -16%, not calculated
